The data set deals with ATP-dependent translocase ABCB1 (Homo sapiens, UniProt P08183). Kind of data set: TP_TRANSPORTER: up-regulation of MDR1 mRNA in Caco-2 cells. The class given is functional, cell-based.
Sequence of ATP-dependent translocase ABCB1 (P08183 whole entry): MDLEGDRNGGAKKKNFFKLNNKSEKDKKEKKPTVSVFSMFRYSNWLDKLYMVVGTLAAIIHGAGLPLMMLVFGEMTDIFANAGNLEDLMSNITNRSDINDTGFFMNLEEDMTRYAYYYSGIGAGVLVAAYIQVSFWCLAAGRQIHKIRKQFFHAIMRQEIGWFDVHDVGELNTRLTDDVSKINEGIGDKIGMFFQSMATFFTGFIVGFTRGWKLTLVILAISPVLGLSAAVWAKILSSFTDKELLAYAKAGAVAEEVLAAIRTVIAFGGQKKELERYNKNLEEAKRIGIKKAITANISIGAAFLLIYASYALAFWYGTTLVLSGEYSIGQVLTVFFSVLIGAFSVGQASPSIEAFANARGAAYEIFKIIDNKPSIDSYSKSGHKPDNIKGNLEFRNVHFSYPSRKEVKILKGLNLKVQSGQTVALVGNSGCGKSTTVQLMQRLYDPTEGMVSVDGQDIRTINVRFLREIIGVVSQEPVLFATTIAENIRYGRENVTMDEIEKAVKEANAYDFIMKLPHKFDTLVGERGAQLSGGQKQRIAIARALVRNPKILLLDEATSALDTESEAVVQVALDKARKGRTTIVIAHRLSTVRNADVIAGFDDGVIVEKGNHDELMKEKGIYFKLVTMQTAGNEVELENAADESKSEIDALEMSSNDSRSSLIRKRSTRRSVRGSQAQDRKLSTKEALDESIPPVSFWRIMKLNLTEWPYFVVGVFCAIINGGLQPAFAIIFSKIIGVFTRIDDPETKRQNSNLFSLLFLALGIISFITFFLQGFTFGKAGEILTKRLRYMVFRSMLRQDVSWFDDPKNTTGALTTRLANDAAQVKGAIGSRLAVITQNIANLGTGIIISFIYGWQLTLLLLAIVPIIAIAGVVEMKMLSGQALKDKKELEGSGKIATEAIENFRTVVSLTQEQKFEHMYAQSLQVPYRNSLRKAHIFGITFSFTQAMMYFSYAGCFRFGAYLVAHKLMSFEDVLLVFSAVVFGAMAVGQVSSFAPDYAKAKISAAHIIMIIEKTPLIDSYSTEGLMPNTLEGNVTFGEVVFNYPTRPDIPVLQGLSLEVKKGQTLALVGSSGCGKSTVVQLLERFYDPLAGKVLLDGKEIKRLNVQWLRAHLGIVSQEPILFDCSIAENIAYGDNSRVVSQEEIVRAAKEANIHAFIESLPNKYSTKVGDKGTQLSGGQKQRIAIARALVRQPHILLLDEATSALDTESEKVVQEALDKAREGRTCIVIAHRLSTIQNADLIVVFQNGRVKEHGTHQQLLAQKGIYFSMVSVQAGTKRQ

Take `C[C@H]1O[C@@H](O[C@H]2[C@@H](O)C[C@H](O[C@H]3[C@@H](O)C[C@H](O[C@H]4CC[C@@]5(C)[C@H](CC[C@@H]6[C@@H]5C[C@@H](O)[C@]5(C)[C@@H](C7=CC(=O)OC7)CC[C@]65O)C4)O[C@@H]3C)O[C@@H]2C)C[C@H](O)[C@@H]1O` [DIGOXIN]: the Activity entry was “inducer [+]”.

The values above are taken from ChEMBL document CHEMBL2074018, “Digoxin up-regulates multidrug resistance transporter (MDR1) mRNA and simultaneously down-regulates steroid xenobiotic receptor mRNA” (Biochem Biophys Res Commun, 2003).
